Columns and labels:
clathrin = assay: Clathrin mRNA expression in HMO6 human microglial cells (qPCR); format: cell-based; details: Aβ42 (5 μM) and/or Rg3 (2.5 or 5 μg/ml), 24 h (FIG. 15C)
Protocol: FIG. 15 is a graph showing a change in the expression of caveolin-1, caveolin-2, clathrin, neprilysin (NEP), insulin-degrading enzyme (IDE) according to treating Aβ and/or ginsenoside Rg3 to HMO6 human microglial cells. HMO6 cells were plated on 35 mm cell culture plates or chamber slides and Aβ42 (5 μM) and/or Rg3 (2.5 or 5 μg/ml) were treated for 24 h. Then, the mRNA expression was determined by quantitative RT-PCR. The expression of caveolin (A-B), clathrin (C) which are endocytosis-related genes and NEP (D) and IDE (E) which are genes encoding Aβ-degrading enzymes were compared depending on the presence or absence of Rg3/Aβ42. The results are shown as mean±SD. * P<0.05, ** P<0.01, *** P<0.001. […]
Total RNA extracts from HMO6 cells or perfused brain tissue were prepared using the Trizol method (Invitrogen). cDNA was synthesized from RNA by reverse transcription of 1 μg total RNA using the Improm-II reverse transcription system (Promega, Wis., USA) and oligo dT primers in a total volume of 20 μl. […] Relative sample expression levels were calculated using Rotor-Gene 6000 Series Software 1.7 and were expressed relative to β-actin for mice or glyceraldehyde 3-phosphate dehydrogenase for HMO6 cells and corrected for between-run variability. Data for the experimental samples are expressed as a percentage of the internal control gene. […]

SRA = assay: In vivo SRA protein expression in brain tissues (western blot); details: mice administrated with Rg3 (FIG. 24B)
Text: HMO6 cells were lysed in 1% RIPA buffer containing protease and phosphatase inhibitors (Roche, Mannheim, Germany) and whole-cell lysates were separated on 10% sodium dodecyl sulfate-polyacrylamide gel electrophoresis. After electrophoresis, the proteins were transferred to polyvinylidene fluoride membranes, and the membranes were blocked with 5% skim milk in Tris-buffered saline solution containing 0.1% Tween-20. The membranes were then immunoblotted with primary antibodies, anti-phospho-p38, anti-p38, anti-phospho-ERK, anti-ERK, and anti-f3-actin (Santa Cruz Biotechnology, USA), followed by incubation with horseradish peroxidase-conjugated anti-rabbit or anti-mouse secondary antibodies (Stressgen, USA). Blots were developed using an enhanced chemiluminescent solution (Thermo, USA).
The present inventor investigated whether ginsenoside Rg3 translocated to brain tissues contributes to the uptake and degradation of Aβ42 in order to determine whether in vitro experimental results described in the Example 5 can be applied to in vivo condition in the same manner. Specifically, the expression level of SRA and SRB gene within brain tissues of mice administrated with Rg3 was determined using the RT-PCR analysis described in the Example 5-4 (FIG. 24A) and the western blot analysis described in the Example 5-6 (FIG. 24B). […]

CC(C)=CCC[C@](C)(O)[C@H]1CC[C@]2(C)[C@@H]1[C@H](O)C[C@@H]1[C@@]3(C)CC[C@H](O[C@@H]4O[C@H](CO)[C@@H](O)[C@H](O)[C@H]4O[C@@H]4O[C@H](CO)[C@@H](O)[C@H](O)[C@H]4O)C(C)(C)[C@@H]3CC[C@]12C [ginsenoside Rg3]
clathrin-mediated Aβ42 endocytosis (clathrin mRNA) (clathrin): promoted Aβ42 uptake into HMO6 cells via a caveolin1 and clathrin-mediated endocytic mechanism
expression of SRA protein in brain tissues (SRA): increased
